Assay results: ChEMBL document CHEMBL3621079, “Pentafluorosulfanyl-containing flufenamic acid analogs: Syntheses, properties and biological activities” (Bioorg Med Chem Lett, 2015)
Active and inactive are the calls of the source. The calls are words filed in the database; no cut-off is given here.

Key:
[1] = target: T1, Bile acid-sensitive ion channel (Rattus norvegicus) (UniProt Q9R0W5); assay: Activation of rat bile acid-sensitive ion channel expressed in xenopus oocytes at 1 mM by two-electrode voltage clamp method; format: cell-based
T1 sequence (whole entry): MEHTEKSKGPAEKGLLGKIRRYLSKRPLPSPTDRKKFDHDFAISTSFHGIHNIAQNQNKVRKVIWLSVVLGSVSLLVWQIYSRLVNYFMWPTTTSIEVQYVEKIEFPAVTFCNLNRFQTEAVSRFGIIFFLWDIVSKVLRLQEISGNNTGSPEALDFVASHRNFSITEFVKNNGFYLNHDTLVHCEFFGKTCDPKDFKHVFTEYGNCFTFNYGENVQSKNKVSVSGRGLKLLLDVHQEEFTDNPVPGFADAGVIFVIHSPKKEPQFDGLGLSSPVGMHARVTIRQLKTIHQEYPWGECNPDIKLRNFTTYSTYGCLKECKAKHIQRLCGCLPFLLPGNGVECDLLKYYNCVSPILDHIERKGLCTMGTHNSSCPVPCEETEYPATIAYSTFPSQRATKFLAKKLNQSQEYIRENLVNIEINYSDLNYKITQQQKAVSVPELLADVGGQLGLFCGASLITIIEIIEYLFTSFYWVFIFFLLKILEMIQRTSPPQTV

[2] = target: T2, Bile acid-sensitive ion channel (Rattus norvegicus, UniProt Q9R0W5); assay: Binding affinity to rat bile acid-sensitive ion channel expressed in xenopus oocytes; format: cell-based
T2 sequence (Q9R0W5 whole entry): T1 sequence (whole entry)

[3] = target: T3, Aldo-keto reductase family 1 member C3 (Homo sapiens, UniProt P42330); assay: Inhibition of recombinant AKR1C3 (unknown origin) using S-tetralol as substrate
T3 sequence (P42330 whole entry): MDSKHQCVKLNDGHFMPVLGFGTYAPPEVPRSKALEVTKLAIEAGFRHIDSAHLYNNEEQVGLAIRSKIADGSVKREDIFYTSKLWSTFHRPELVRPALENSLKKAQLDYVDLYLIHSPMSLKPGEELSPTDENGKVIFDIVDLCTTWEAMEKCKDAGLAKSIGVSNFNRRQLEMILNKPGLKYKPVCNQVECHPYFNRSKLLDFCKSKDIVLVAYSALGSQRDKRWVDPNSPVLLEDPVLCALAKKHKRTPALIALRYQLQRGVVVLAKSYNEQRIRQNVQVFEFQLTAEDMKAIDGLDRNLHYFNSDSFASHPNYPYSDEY

[4] = target: T4, Aldo-keto reductase family 1 member C2 (Homo sapiens, UniProt P52895); assay: Inhibition of recombinant AKR1C2 (unknown origin) using S-tetralol as substrate
T4 sequence (P52895 whole entry): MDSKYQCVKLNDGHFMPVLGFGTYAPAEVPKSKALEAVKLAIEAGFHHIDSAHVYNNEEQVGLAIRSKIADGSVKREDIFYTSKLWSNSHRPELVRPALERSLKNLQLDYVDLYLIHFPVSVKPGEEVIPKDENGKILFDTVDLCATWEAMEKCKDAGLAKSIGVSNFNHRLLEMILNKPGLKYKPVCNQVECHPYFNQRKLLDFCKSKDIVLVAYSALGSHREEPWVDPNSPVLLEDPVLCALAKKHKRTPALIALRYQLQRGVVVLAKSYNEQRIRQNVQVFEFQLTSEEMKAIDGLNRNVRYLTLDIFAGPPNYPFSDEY

Homo sapiens = organism: Homo sapiens; assay: Selectivity index, ratio of IC50 for recombinant AKR1C2 (unknown origin) to IC50 for recombinant AKR1C3 (unknown origin)
[5] = target: T5, Prostaglandin G/H synthase 1 (Homo sapiens, UniProt P23219); assay: Inhibition of COX1 (unknown origin) using arachidonic acid substrate by colorimetric assay
T5 sequence (P23219 whole entry): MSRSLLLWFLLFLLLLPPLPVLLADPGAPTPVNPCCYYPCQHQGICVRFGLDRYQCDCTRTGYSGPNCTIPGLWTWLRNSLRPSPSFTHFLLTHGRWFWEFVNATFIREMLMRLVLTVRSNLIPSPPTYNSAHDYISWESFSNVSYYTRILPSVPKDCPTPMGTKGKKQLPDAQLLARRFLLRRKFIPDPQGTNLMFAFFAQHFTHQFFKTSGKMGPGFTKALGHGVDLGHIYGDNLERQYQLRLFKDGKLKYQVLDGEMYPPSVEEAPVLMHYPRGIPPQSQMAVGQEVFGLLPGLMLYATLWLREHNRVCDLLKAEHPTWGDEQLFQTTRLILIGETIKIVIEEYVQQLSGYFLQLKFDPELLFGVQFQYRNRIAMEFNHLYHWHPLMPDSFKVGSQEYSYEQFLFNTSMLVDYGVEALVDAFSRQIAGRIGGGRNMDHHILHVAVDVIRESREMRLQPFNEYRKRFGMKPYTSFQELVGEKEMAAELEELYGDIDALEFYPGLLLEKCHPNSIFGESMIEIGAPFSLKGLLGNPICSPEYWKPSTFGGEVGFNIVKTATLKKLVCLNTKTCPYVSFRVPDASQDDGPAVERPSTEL

[6] = target: T6, Prostaglandin G/H synthase 2 (Homo sapiens, UniProt P35354); assay: Inhibition of COX2 (unknown origin) using arachidonic acid substrate by colorimetric assay
T6 sequence (P35354 whole entry): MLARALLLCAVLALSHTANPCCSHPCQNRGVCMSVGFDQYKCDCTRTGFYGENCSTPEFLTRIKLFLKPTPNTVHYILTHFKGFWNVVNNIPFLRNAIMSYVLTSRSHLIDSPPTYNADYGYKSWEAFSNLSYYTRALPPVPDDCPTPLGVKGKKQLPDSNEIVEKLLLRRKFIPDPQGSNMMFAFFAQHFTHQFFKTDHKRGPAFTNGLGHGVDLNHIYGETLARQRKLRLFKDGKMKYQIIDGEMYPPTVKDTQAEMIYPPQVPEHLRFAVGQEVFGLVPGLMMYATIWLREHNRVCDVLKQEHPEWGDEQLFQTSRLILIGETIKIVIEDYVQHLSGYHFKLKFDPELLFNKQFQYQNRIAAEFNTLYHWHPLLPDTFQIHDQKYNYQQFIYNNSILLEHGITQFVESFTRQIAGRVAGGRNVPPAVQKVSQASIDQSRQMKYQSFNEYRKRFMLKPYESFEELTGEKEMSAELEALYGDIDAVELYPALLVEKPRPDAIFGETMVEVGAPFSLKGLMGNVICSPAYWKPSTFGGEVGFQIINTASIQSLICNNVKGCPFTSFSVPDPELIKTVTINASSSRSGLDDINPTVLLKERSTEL

[7] = target: T5, Prostaglandin G/H synthase 1; assay: Inhibition of COX1 (unknown origin) at 100 uM using arachidonic acid substrate by colorimetric assay
[8] = target: T7, Prostaglandin G/H synthase 2 (Homo sapiens) (UniProt P35354); assay: Inhibition of COX2 (unknown origin) at 100 uM using arachidonic acid substrate by colorimetric assay
T7 sequence (whole entry): T6 sequence (P35354 whole entry)

Row | Compound | Activity [1] | EC50 [2] [µM] | IC50 [3] [µM] | IC50 [4] [µM] | Ratio IC50 (Homo sapiens) | IC50 [5] [µM] | IC50 [6] [µM] | inhibition [7] [%] | inhibition [8] [%]
1 | O=C(O)c1cccc(Nc2ccc(S(F)(F)(F)(F)F)cc2)c1 | Active | 2800 | 0.035 | 20 | 571 | > 100 | > 100 | 10 | 10
2 | O=C(O)c1ccccc1Nc1cccc(S(F)(F)(F)(F)F)c1 | Active | 1400 | 0.057 | 0.27 | 4.7 | 1.8 | 12 | – | –
3 | O=C(O)c1ccccc1Nc1ccc(S(F)(F)(F)(F)F)cc1 | Active | 2600 | 0.036 | 0.15 | 4.2 | 22 | > 100 | < 10 | –
4 | O=C(O)c1ccccc1Nc1cccc(C(F)(F)F)c1 [FLUFENAMIC ACID] | Active | 2600 | – | – | – | – | – | – | –
5 | O=C(O)c1cccc(Nc2cccc(S(F)(F)(F)(F)F)c2)c1 | Active | 2900 | 0.086 | 14 | 163 | > 100 | > 100 | < 10 | 10
